According to publication PMC11264232, “Are the metal identity and stoichiometry of metal complexes important for colchicine site binding and inhibition of tubulin polymerization?” (Dalton Transactions (Cambridge, England : 2003), 2024):

Columns and labels:
[1] = Solution stability by UV–vis spectrophotometry; format: physicochemical
[2] = Reduction by glutathione (GSH), UV–vis; format: physicochemical; details: pH 7.4, glove box
Excerpt: The reduction of complexes 1, 2, 4 and 5 by glutathione (GSH), one of the major cellular reductants, was investigated at pH 7.4 by recording UV–vis spectra in a glove box.

[3] = system: NCI 60 human tumor cell line panel; experiment: NCI-60 five-dose screen, average across panel; format: cell-based; details: five-dose 0.01–100 μM
Procedure: (§2) This evaluation involved the utilization of the NCI 60 human tumor cell line panel.[57]
(§3) The NCI-60 SRB assay was performed as described previously.[76] GI50 values (the concentration of the metal complex causing 50% growth inhibition), TGI value (the concentration of the complex causing 0% cell growth), and LC50 (the concentration of the complex causing 50% cell death) were interpolated from dose–response curves that were plots of percentage cell growth versus concentration of test compounds.

CCRF-CEM = experiment: NCI-60 five-dose screen; format: cell-based, human; details: Leukemia
Excerpt: (§4) The proligands HL^1–HL^3 and their corresponding metal complexes 1–8 prepared in this study were subjected to evaluation of their anticancer potential, including selectivity towards specific types of cancer: leukemia, non-small cell lung (NSCLC), colon, central nervous system (CNS), melanoma, ovarian, renal, prostate and breast cancers, by the National Cancer Institute's Developmental Therapeutics Program. This evaluation involved the utilization of the NCI 60 human tumor cell line panel.[57]
as §3

K-562 = experiment: NCI-60 five-dose screen; format: cell-based, human; details: Leukemia
Procedure: as §2, §3

MOLT-4 = experiment: NCI-60 five-dose screen; format: cell-based, human; details: Leukemia
Procedure: as §2, §3

RPMI-8226 = experiment: NCI-60 five-dose screen; format: cell-based, human; details: Leukemia
Procedure: as §2, §3

EKVX = experiment: NCI-60 five-dose screen; format: cell-based, human; details: Non-Small Cell Lung Cancer
Excerpt: as §4, §3

NCI-H226 = experiment: NCI-60 five-dose screen; format: cell-based, human; details: Non-Small Cell Lung Cancer
Excerpt: as §4, §3

NCI-H460 = experiment: NCI-60 five-dose screen; format: cell-based, human; details: Non-Small Cell Lung Cancer
Excerpt: as §4, §3

NCI-H522 = experiment: NCI-60 five-dose screen; format: cell-based, human; details: Non-Small Cell Lung Cancer
Excerpt: as §4, §3

HCT-116 = experiment: NCI-60 five-dose screen; format: cell-based, human; details: Colon cancer
Excerpt: as §4, §3

HCT-15 = experiment: NCI-60 five-dose screen; format: cell-based, human; details: Colon cancer
Excerpt: as §4, §3

SW-620 = experiment: NCI-60 five-dose screen; format: cell-based, human; details: Colon cancer
Excerpt: as §4
(§5) GI50 values (the concentration of the metal complex causing 50% growth inhibition), TGI value (the concentration of the complex causing 0% cell growth), and LC50 (the concentration of the complex causing 50% cell death) were interpolated from dose–response curves that were plots of percentage cell growth versus concentration of test compounds.

SF-268 = experiment: NCI-60 five-dose screen; format: cell-based, human; details: CNS cancer
Excerpt: as §4, §5

SF-295 = experiment: NCI-60 five-dose screen; format: cell-based, human; details: CNS cancer
Excerpt: as §4, §5

SNB-19 = experiment: NCI-60 five-dose screen; format: cell-based, human; details: CNS cancer
Excerpt: as §4, §5

U251 = experiment: NCI-60 five-dose screen; format: cell-based, human; details: CNS cancer
Excerpt: as §4, §3

OVCAR-4 = experiment: NCI-60 five-dose screen; format: cell-based, human; details: Ovarian cancer
Excerpt: as §4, §3

OVCAR-5 = experiment: NCI-60 five-dose screen; format: cell-based, human; details: Ovarian cancer
Excerpt: as §4, §3

NCI/ADR-RES = experiment: NCI-60 five-dose screen; format: cell-based, human; details: Ovarian cancer
Excerpt: as §4, §3

786-0 = experiment: NCI-60 five-dose screen; format: cell-based, human; details: Renal cancer
Excerpt: as §4, §3

A498 = experiment: NCI-60 five-dose screen; format: cell-based, human; details: Renal cancer
Excerpt: as §4, §3

ACHN = experiment: NCI-60 five-dose screen; format: cell-based, human; details: Renal cancer
Excerpt: as §4, §3

CAKI-1 = experiment: NCI-60 five-dose screen; format: cell-based, human; details: Renal cancer
Excerpt: as §4, §3

RXF 393 = experiment: NCI-60 five-dose screen; format: cell-based, human; details: Renal cancer
Excerpt: as §4, §3

UO-31 = experiment: NCI-60 five-dose screen; format: cell-based, human; details: Renal cancer
Excerpt: as §5

PC-3 = experiment: NCI-60 five-dose screen; format: cell-based, human; details: Prostate cancer
Excerpt: as §5

MDA-MB-231/ATCC = experiment: NCI-60 five-dose screen; format: cell-based, human; details: Breast cancer
Excerpt: as §4, §3

HS 578T = experiment: NCI-60 five-dose screen; format: cell-based, human; details: Breast cancer
Excerpt: as §4, §3

BT-549 = experiment: NCI-60 five-dose screen; format: cell-based, human; details: Breast cancer
Excerpt: as §4, §3

MDA-MB-468 = experiment: NCI-60 five-dose screen; format: cell-based, human; details: Breast cancer
Excerpt: as §4, §3

purified tubulin = experiment: Inhibition of tubulin polymerization; format: biochemical; details: read-out: Inhibition of tubulin polymerization IC50 ± SD
Excerpt: As a reference for comparison, combretastatin A-4 (CA-4) and Cu(HL^1)Cl2 were used.
(§1) The methods used for determination of the IC50 values for tubulin assembly and inhibition of [^3H]colchicine binding were as described previously.[77]

[4] = system: tubulin (colchicine site); experiment: Inhibition of [3H]colchicine binding to tubulin; details: tubulin 0.5 μM, [3H]colchicine 5 μM
Excerpt: as §1

[5] = system: microtubule system in A549 cancer cells; experiment: α-Tubulin immunostaining; format: cell-based, human; details: 80 μM, 24 h
Procedure: Since we found remarkable antiproliferative activity exerted by some of the tested compounds by the BrdU assay, and it was also shown that some of the compounds might interfere with tubulin polymerization in cell-free tests, we examined whether the metal complexes or the proligands influence the structure of the microtubule system in A549 cancer cells. For this purpose, the cells were treated with either DMSO, HL^1–HL^3, or with complexes 1, 2, 4 and 5, or were left untreated, followed by α-tubulin immunostaining (Fig. 11). In the untreated samples normal cell morphology and filamentous microtubule structure was observed.
The structure of microtubules was visualized by α-tubulin immunostaining on A549 cells. For this, 5 × 10^4 cells per well were seeded onto coverslips in 24-well plates. […] Then samples were fixed with 4% formaldehyde (Molar Chemicals, Halásztelek, Hungary), permeabilized with 0.3% Triton-X-100 (Calbiochem, Merck Millipore, Darmstadt, Germany) and were blocked using 5% BSA (Sigma-Aldrich, St Louis, Missouri, USA) diluted in PBS. Then the cells were incubated with anti-α-tubulin antibody (Thermo Fisher Scientific, monoclonal mouse antibody, DM1A, Waltham, Massachusetts, USA) in a 1 : 300 dilution in 1% BSA followed by Alexa 488 fluorophore-conjugated goat anti-mouse secondary antibody (Abcam, Cambridge, UK) in a 1 : 600 dilution in 1% BSA. […]

A549 cells = experiment: BrdU incorporation assay; details: 10 μM, 24 h
Procedure: To test directly the antiproliferative activity of the proligands and of their Co(III) and Fe(III) complexes on A549 cancer cells, non-toxic concentrations of the compounds were applied to the cells, then the 5-bromo-2′-deoxy-uridine (BrdU) incorporation assay was performed (Fig. 10).
The effect of proligands HL^1–HL^3 and of metal complexes 1, 2 and 4, 5 on the proliferation of A549 cells was investigated by the BrdU assay (5-bromo-2′-deoxyuridine Labeling and Detection Kit I, Roche, Cat. No. 11 296 736 001). For this, 3 × 10^4 cells were seeded onto glass coverslips that were placed on 24-well plates, and the cells were left to grow overnight. Next day, when the cells reached about 50% confluence, the samples were treated with 10 μM of each compound or with an equivalent volume of DMSO for 24 h. At this point, BrdU labeling solution was added in a 1 : 1000 dilution, and the incubation continued for 30 min. Then the cells were fixed using 70% ethanol in 50 mM glycine (pH 2.0), and immunofluorescence of adherent cells was measured following the manufacturer's instructions. BrdU incorporation was visualized using an Olympus FV10i confocal microscope.

[6] = system: MRC-5 human lung fibroblast cells; experiment: MTT viability assay, 24 h; details: read-out: IC50 values MRC-5; MRC-5 fibroblasts, 24 h, MTT assay
Procedure: We wanted to compare the cytotoxicity of proligands HL^1–HL^3 and of their Co(III) and Fe(III) complexes 1, 2 and 4, 5 on cell lines originating from the same tissue, so human lung carcinoma A549 cells and lung fibroblast MRC-5 cells were subjected to 24 h treatments.
The biological effects of selected metal complexes (1, 2, 4 and 5) and of their proligands (HL^1, HL^2 and HL^3) were tested more extensively on A549 human lung adenocarcinoma cells and on MRC-5 human lung fibroblast cells. Both cell lines were obtained from ATCC and maintained in DMEM cell culture media containing 1.0 g L^−1 glucose (Biosera, Nuaille, France) complemented with 10% fetal bovine serum (FBS), 2 mM L-glutamine, 0.01% streptomycin and 0.005% penicillin and were cultured under standard conditions in a 37 °C incubator at 5% CO2 and 95% humidity. The viability of A549 and of MRC-5 fibroblast cells upon exposure to the selected metal–ligand complexes and ligands were evaluated by the MTT assay. For this, 10 000 cells per well were seeded into 96-well plates and left to grow. On the next day the cells were exposed to 0, 5, 10, 20, 40 or 80 μM of each compound or to an equivalent volume of DMSO for 24 h. After the treatments, cells were washed with PBS and then were incubated with 0.5 mg mL^−1 MTT reagent (Sigma-Aldrich, St Louis, Missouri, USA) for 1 h at 37 °C. Finally, 100 μL of DMSO (Molar Chemicals, Halásztelek, Hungary) was added to each well, and the absorbance of samples was measured at 570 nm using a Synergy HTX plate reader (BioTek, Winooski, Vermont, USA). The viability measurements were repeated three times using 3 independent biological replicates.

SMILES: CC(=NN=C([S-])Nc1cc(C)c(O)c(C)c1)c1cccc(CN2CCOCC2)n1.CC(=NN=C([S-])Nc1cc(C)c(O)c(C)c1)c1cccc(CN2CCOCC2)n1.O=[N+]([O-])[O-].[Fe+3] [Complex 4, [Fe^III(L^2)2]NO3]
- stability of Fe(III) complexes ([1]; DMSO and water at pH 7.4): slow partial dissociation
- stability of Fe(III) complexes ([1]; pH 2): complete dissociation
- stability of Fe(III) complexes ([1]; pH 11.7, anoxic conditions): the changes were minimal
- reduction by glutathione (GSH) [2]: reduction by GSH
- average TGI across all cell lines in the panel [3]: 18400 nM
- GI50 ([3]; read-out: average GI50 across all cell lines in the panel): 2920 nM
- LC50 ([3]; read-out: average LC50 across all cell lines in the panel): 51200 nM
- GI50 (CCRF-CEM): 2220 nM
- GI50 (K-562): 2000 nM
- GI50 (MOLT-4): 2720 nM
- GI50 (RPMI-8226): 1810 nM
- GI50 (EKVX): 2250 nM
- GI50 (NCI-H226): 2540 nM
- GI50 (NCI-H460): 1980 nM
- GI50 (NCI-H522): 2070 nM
- GI50 (HCT-116): 2300 nM
- GI50 (HCT-15): 2360 nM
- GI50 (SW-620): 2300 nM
- GI50 (SF-268): 2360 nM
- GI50 (SF-295): 1940 nM
- GI50 (SNB-19): 2760 nM
- GI50 (U251): 1970 nM
- GI50 (OVCAR-4): 3250 nM
- GI50 (OVCAR-5): 2740 nM
- GI50 (NCI/ADR-RES): 2980 nM
- GI50 (786-0): 9560 nM
- GI50 (A498): 19800 nM
- GI50 (ACHN): 3100 nM
- GI50 (CAKI-1): 3740 nM
- GI50 (RXF 393): 1950 nM
- GI50 (UO-31): 1660 nM
- GI50 (PC-3): 2430 nM
- GI50 (MDA-MB-231/ATCC): 2440 nM
- GI50 (HS 578T): 1960 nM
- GI50 (BT-549): 2190 nM
- GI50 (MDA-MB-468): 1560 nM
- IC50 (purified tubulin): 3400 ± 60 nM
- Inhibition of colchicine binding, % inhibition ± SD ([4]; 5 μM inhibitor): 3.4 ± 5%
- Inhibition of colchicine binding, % inhibition ± SD ([4]; 25 μM inhibitor): 17 ± 4%
- effect on microtubule structure and cell morphology [5]: even greater disruption
- A549 cell proliferation (BrdU incorporation) (A549 cells): significantly less BrdU incorporation
- IC50 [6]: > 80000 nM
